Experiments:
[1] = test system: noggin-treated cells (human NSC); assay: Neurosphere formation from noggin-treated human embryonic stem cells; assay type: cell-based; settings: 5-7 days
Procedure: (§1) Neurospheres were formed and cultured as described in Dottori, M. et al. (2008), supra. Briefly, human embryonic stem cells (HES-2, HES-3, and HES-4, WiCell Research Institute, Madison Wis.) were cultured according to previously published methods. Neuronal induction using noggin was performed according to published methods and after growth and subculture, cells were grown as neurospheres in the presence of growth factors. Neurospheres could be plated on dishes coated with laminin or fibronectin. When plated onto laminin and cultured with neural basal medium (NBM, R&D Systems, Minneapolis Minn.), neurospheres typically differentiate into neurons. Quantitation of neuron-forming spheres (a measure of neuronal differentiation) was done by counting the number of neurospheres from which neuronal outgrowth was visible.
Plated neurospheres were incubated in the presence or absence of LPA (Sigma Aldrich, St. Louis, Mo.) and/or antibody (concentrations shown) for 5 days. Dilutions of LPA were made in 0.1% fatty acid-free bovine serum albumin (final concentration 0.01% BSA).
As shown by Dottori et al., LPA inhibits the ability of NSC to form neurospheres, even in the presence of bFGF and EGF. […] […] Dottori, M. et al. (2008), supra. […]

[2] = test system: plated neurospheres (human NSC); assay: Neuronal differentiation: neuron-forming neurospheres; assay type: cell-based
Procedure: as §1
[…] […] Dilutions of LPA were made in 0.1% fatty acid-free bovine serum albumin (final concentration 0.01% BSA).
The effect of LPA on an additional differentiation step, the differentiation of NSC toward mature cells, was also measured. When plated on laminin in NBM, neurospheres typically differentiate into neurons, as assayed by visible neurons, elongated cell shape and/or positive staining for β-tubulin.
Using the same conditions used in Example 2 for LPA treatment alone, plated neurospheres were treated with 10 μM LPA alone, or with anti-LPA antibody B3 or B7 (1 mg/ml) alone, or with 10 μM LPA in combination with 1 mg/ml of antibody B3 or B7. Similarly, cells were treated with 10 μM LPA alone, humanized anti-LPA antibody LT3015 alone (1 mg/ml) or with 10 μM LPA in combination with 1 mg/ml LT3015. The percent of neuron-forming neurospheres was quantitated as in Example 2 (beta-tubulin staining and quantification of neuron-forming spheres, as described in Dottori, et al (2008)). […] Neurosphere samples treated with B3 antibody alone had neuron-forming neurospheres equivalent to control (100%). […] The antibody B7, under similar conditions, had little to no effect in this experiment (37.00±5.31% of control). […]

[3] = test system: adult mouse NSC; assay: Neuronal differentiation of adult mouse NSC; assay type: cell-based
Excerpt: However, and similarly to data obtained in human NSC, LPA inhibited the neuronal differentiation of adult mouse NSC by maintaining them as NSC when plated in conditions normally inducing neuronal differentiation. […] These effects were independent of apoptosis or proliferation.

[4] = test system: noggin-treated cells (human NSC); settings: 10 μM LPA, 11-14 days, Dottori et al.; cited from earlier work
[5] = test system: plated neurospheres (human NSC); settings: 10 μM LPA, Dottori et al.; cited from earlier work

lysophosphatidic acid [LPA]
% neurosphere formation ([1]; 10 μM LPA): 13.500±5.590%
% neurosphere formation ([1]; LPA at 1 μM): 50±12.50%
neuron-forming neurospheres, % of untreated control ([2]; Example 4, 10 μM LPA alone): approximately 25.00±6.45%
neuron-forming spheres, % of control ([2]; Example 5, 3 days, 10 μM LPA alone): approximately 26%
neuron-forming neurospheres, pool of data ([2]; LPA alone): 25.00±6.45%
neurosphere formation or growth of mouse NSC [3]: did not modify neurosphere formation or growth
nestin positive, % of total cells ([3]; LPA 10 μM, three days): 87.55±3.20%
βIII-tubulin expression, % of total cells ([3]; LPA 10 μM, three days): 26.25±2.08%
% of cultures formed neurospheres [4]: 13.47%±6.94
neuronal cells from plated neurospheres [5]: did not give rise to neuronal cells

Reference: US20130202586A1, “STEM CELL THERAPY USING INHIBITORS OF LYSOPHOSPHATIDIC ACID” (priority 2011, published 2013)
